Columns and labels:
Assay type in all cases: in vivo
rhinarium = assay: Case: French Bulldog with dry, rough and chapped rhinarium; details: past treatment history of the same dog
Description: In this breed of dogs the rhinarium is typically black, but for this individual the black colour of the rhinarium had faded and was grey. […] Topical treatment with oil or ointments provided temporary smoothing effect and a change in colour. […] The rhinarium was no longer rough and chapped, but it was supple and had obtained a characteristic black colour. Subsequently the positive effect on the rhinarium condition was produced with the oil blend in dogs from different breeds.

skin and claws = assay: Case: Bullterrier with skin problems and splitting and breaking claws; details: past treatment history of the same dog
Description: A three year old, female Bullterrier Dog had suffered from various skin problems since it was a puppy. The skin problems were characterized by red spots in the stomach and hairless spots in the head and in the hind limbs. In addition to the skin problems the dog suffered from splitting and breaking claws. The claws kept constantly breaking and by the age of three the claws had never grown long enough to be clipped. […] The skin was cleared from the red spots and the hairless areas started to grow hair. The positive effects on the skin health remained over several months as the supplementation was continued. […] Three months after the supplementation with the oil blend had begun, the dog's claws needed to be clipped. This was the first time in this dog's life.

[1] = tested on: symmetrical lupoid onychodystrophy (SLO); assay: Case: schapendoes dog with symmetrical lupoid onychodystrophy (SLO); details: initial treatment before supplementation
Experimental: A four year old, female schapendoes dog was diagnosed with symmetrical lupoid onychodystrophy (SLO). […] Supplementation with the nutritional oil blend as prepared in example 1 at 4 ml/10 kg body weight was started immediately after the secondary infections had cleared.

atopic and pruritic skin = assay: Case: Parson Russell terrier with atopic and pruritic skin; details: past treatment history of the same dog
Description: An eight-year-old Parson Russell terrier had suffered for a long time from atopic and pruritic skin. The dog had been treated with cortisone and with a variety of different fatty acid supplements containing GLA and fish oil fatty acids (EPA and DHA). […] Constant itching tired the dog and it became phlegmatic. The dog was put on daily dosing of the nutritional oil blend as prepared in example 1 and a clear change in the dogs skin condition and behaviour occurred in a matter of weeks. The rashes and itching was reduced by 95%.

With O=C(O)CCCC[C@@H]1SC[C@@H]2NC(=O)N[C@@H]21 [biotin] the “appearance of the rhinarium with earlier nutritional supplements” value (rhinarium) was “without any appreciable effect” and the “claws with earlier treatment” value (skin and claws) was “without any appreciable improvement”.

In the case of CC1=C(C(=O)O)N2C(=O)[C@@H](NC(=O)[C@H](N)c3ccccc3)[C@H]2SC1 [cephalexin], the “secondary bacterial infections in affected claws” value [1] is reported as “total resolution of the bacterial infection”.

With C[C@]12CCC(=O)C=C1CC[C@@H]1[C@@H]2C(=O)C[C@@]2(C)[C@H]1CC[C@]2(O)C(=O)CO [cortisone] the “effect of earlier treatments on atopic and pruritic skin” value (atopic and pruritic skin) was “provided help only for some weeks”.

For vitamin A, the “appearance of the rhinarium with earlier nutritional supplements” value (rhinarium) was “without any appreciable effect”.
